According to patent publication US10287270B2, “Amino pyrimidine SSAO inhibitors” (ELI LILLY AND COMPANY, priority 2016, dated 2019):
Structures can show the parent of a compound that is named as a salt. Where two headings read alike, the source gives them in different places.

Experiments:
[1] = system: SSAO activity in rat plasma and liver; assay: SSAO target engagement in rat plasma and liver; assay type: in vivo; details: for SSAO Activity (%) Liver 24 hour / SSAO Activity (%) Plasma 2 hour / SSAO Activity (%) Plasma 24 hour: mean ± SEM, n = 6
Experimental: The SSAO activity in rat plasma and liver tissues are measured using the MAO-Glo™ assay kit from Promega (V1402). The residual SSAO activity in rats after compound treatment is estimated by measuring the total amine oxidase activity in plasma or liver lysates that are insensitive to the presence of the MAO inhibitor Clogyline and Pargyline. Rats are administered the compound of Example 2 at the doses of 15, 3, 0.6, 0.12, 0.025, 0.005 mg/kg. The control group is administered with the same volume (2 ml/kg) of the dosing vehicle (hydroxyethyl cellulose 1% w/v, 0.25% Tween 80). Plasma and liver at 2 or 24 hours post compound treatment are harvested and stored at −78° C. until analysis. Tissue lysates are prepared by homogenization in a lysis buffer (20 mM HEPES, pH 7.4, 150 mM NaCl, 1 mM EDTA, 1 mM EGTA, 1% Triton X-100 and 1× Roche Complete protease inhibitor tablet). Tissue particles are removed by centrifugation at 12,000 rpm at 4° C. for 30 minutes. 40 μl of plasma or liver lysates is incubated with Clogyline (10 μM) and Pargyline (10 μM) for 20 minutes at room temperature before the addition of the luminogenic substrate (50 μM) for 60 minutes. The product generated is quantified according to the manufacture's procedure. The fraction of activity that is insensitive to the presence of the MAO inhibitors is used as the surrogate for the residual SSAO activity. The compound of Example 2 was evaluated in the protocol essentially as described above administered at various doses.

[2] = target: human recombinant SSAO (hSSAO) (Homo sapiens (Human), UniProt Q16853); assay: SSAO/VAP-1 in vitro activity, MAO-Glo assay, recombinant SSAO; assay type: biochemical; details: substrate 10 μM, mean ± SEM, read-out: hSSAO Inhib Rel IC50
Experimental: Amine oxidase activity of recombinant SSAO, MAOa, and MAOb isoforms are measured using the MAO-Glo™ assay kit from Promega (V1402). Test compounds (with DMSO as vehicle, 0.5% v/v for SSAO) and the enzyme are incubated for 10 mins at room temperature before the addition of the luminogenic substrate. The substrate concentration is 10 μM for human recombinant SSAO. The assays are conducted in a pH 7.4 buffer (50 mM HEPES, 120 mM NaCl, 5 mM KCl, 2 mM CaCl2, 1.4 mM MgCl2, 0.001% Tween-20) in a well-plate. Oxidation of the substrate is conducted for 2 hrs before the addition of detecting reagent according the manufacture's protocol. The IC50 value of the tested compounds is calculated by fitting the dose response curve using a 4-parameter non-linear regression routine.

[3] = Plasma compound levels by mass spectroscopy in 3H diet mice; assay type: in vivo, mouse; details: for concentration at 2 h: male, C57BL/6N, plasma, read-out: Plasma Compound Level
Experimental: Male C57BL/6N mice are fed with D09100301 diet (Research Diets, 40% fat, 2% cholesterol, 24% fructose, (the, high fat, high cholesterol and high fructose, the “3H diet”) for 150 days. Each mouse is then singly housed after 5 days for an acclimation period. Plasma alanine aminotransferase (ALT) and cytokeratin 18 (CK18) are measured. After one week of recovery, the mice are randomized into 5 groups based on their ALT values, CK18 values, and body weight. […] Blood is collected from mice treated with the compound of Example 6 for 76 days 2 hours after the last dose. Compound levels in the plasma are analyzed by mass spectroscopy.

[4] = system: Male C57BL/6N mice fed 3H diet; assay: Mouse model of NASH and fibrosis induced by 3H diet; assay type: in vivo; details: for Hepatic inflammation Score (0-3) Left / Macrovesicular vaculation Score (0-3) Left / Perisinusoidal fibrosis Score (0-3) Left: left lobe; for Hepatic inflammation Score (0-3) Right / Macrovesicular vaculation Score (0-3) Right / Perisinusoidal fibrosis Score (0-3) Right: right lobe
Experimental: Male C57BL/6N mice are fed with D09100301 diet (Research Diets, 40% fat, 2% cholesterol, 24% fructose, (the, high fat, high cholesterol and high fructose, the “3H diet”) for 150 days. Each mouse is then singly housed after 5 days for an acclimation period. Plasma alanine aminotransferase (ALT) and cytokeratin 18 (CK18) are measured. After one week of recovery, the mice are randomized into 5 groups based on their ALT values, CK18 values, and body weight. […] Blood is collected from mice treated with the compound of Example 6 for 76 days 2 hours after the last dose. Compound levels in the plasma are analyzed by mass spectroscopy. […] At the completion of the study, the animals are sacrificed and their livers excised. Two sections of the left and right lobes are fixed in neutral buffered 10% formalin. Liver tissue slides are stained with hematoxylin and eosin (H&E), Sirius red, and Masson's Trichrome to prepare slides for pathological analysis. All specimens are examined microscopically and scored as a modified Brunt score NASH Activity Score. Scores are based on the grading scheme and end-points as described in Brunt E. M, et al., “Histopathology of nonalcoholic fatty liver disease,” World J. of Gastroenterol, 2010, 16(42), 5286-5296. Group means are then calculated for each individual end-point. The following endpoints are used to characterize the fast food model of NASH in mice as modified from NASH endpoints (See Brunt, E. M. “Histopathology of nonalcoholic fatty liver disease,” Clin Liver Dis., 2009, 13, 533-544 and Brunt, E. M, et al., “Nonalcoholic steatohepatitis: A proposal for grading and staging the histological lesions”, Am J Gastroenterology, 1999, 94(9), 2467-2474.

[5] = mouse 3H diet, 0.6 mg/kg once daily, mean ± SEM
[6] = mouse 3H diet, 0.6 mg/kg, mean ± SEM
[7] = mouse 3H diet, 2 mg/kg once daily, mean ± SEM
[8] = mouse 3H diet, 2 mg/kg, mean ± SEM
[9] = mouse 3H diet, 6 mg/kg once daily, mean ± SEM
[10] = mouse 3H diet, 6 mg/kg, mean ± SEM
[11] = mouse 3H diet, 20 mg/kg once daily, mean ± SEM
[12] = mouse 3H diet, 20 mg/kg, mean ± SEM

Chain of human recombinant SSAO (hSSAO) (Q16853 whole entry, canonical isoform): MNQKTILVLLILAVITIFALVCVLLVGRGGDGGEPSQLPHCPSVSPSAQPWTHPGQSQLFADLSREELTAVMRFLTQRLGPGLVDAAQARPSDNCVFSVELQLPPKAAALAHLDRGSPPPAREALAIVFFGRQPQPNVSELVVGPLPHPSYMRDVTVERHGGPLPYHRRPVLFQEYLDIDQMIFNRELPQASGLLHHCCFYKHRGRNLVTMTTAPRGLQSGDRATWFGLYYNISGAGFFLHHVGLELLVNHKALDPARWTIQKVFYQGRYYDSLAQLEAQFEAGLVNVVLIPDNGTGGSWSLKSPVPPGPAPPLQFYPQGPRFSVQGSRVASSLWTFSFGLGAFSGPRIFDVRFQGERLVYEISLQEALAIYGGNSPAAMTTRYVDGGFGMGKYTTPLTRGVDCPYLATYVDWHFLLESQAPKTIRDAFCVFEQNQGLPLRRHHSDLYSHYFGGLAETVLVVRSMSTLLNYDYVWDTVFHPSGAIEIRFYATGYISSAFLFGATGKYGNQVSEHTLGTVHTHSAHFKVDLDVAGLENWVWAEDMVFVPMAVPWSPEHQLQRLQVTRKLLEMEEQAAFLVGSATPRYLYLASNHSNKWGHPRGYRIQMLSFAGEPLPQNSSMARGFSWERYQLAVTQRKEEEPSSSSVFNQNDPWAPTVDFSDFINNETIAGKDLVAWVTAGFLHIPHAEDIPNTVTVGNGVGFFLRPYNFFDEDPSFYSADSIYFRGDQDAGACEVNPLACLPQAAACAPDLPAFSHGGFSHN

Compound: Cl.Cl.NC/C(=C\F)COc1cnc(N2CCC(O)CC2)nc1 [Example 2, 1-[5-[(E)-2-(Aminomethyl)-3-fluoro-allyloxy]pyrimidin-2-yl]piperidin-4-ol Dihydrochloride]
- SSAO Activity (%) Liver 24 hour ([1]; 0.005 mg/kg): 75 ± 18%
- SSAO Activity (%) Plasma 2 hour ([1]; 0.005 mg/kg): 31 ± 3%
- SSAO Activity (%) Plasma 24 hour ([1]; 0.005 mg/kg): 70 ± 7%
- SSAO Activity (%) Liver 24 hour ([1]; 0.025 mg/kg): 68 ± 14%
- SSAO Activity (%) Plasma 2 hour ([1]; 0.025 mg/kg): 21 ± 1%
- SSAO Activity (%) Plasma 24 hour ([1]; 0.025 mg/kg): 55 ± 9%
- SSAO Activity (%) Liver 24 hour ([1]; 0.12 mg/kg): 45 ± 8%
- SSAO Activity (%) Plasma 2 hour ([1]; 0.12 mg/kg): 7 ± 1%
- SSAO Activity (%) Plasma 24 hour ([1]; 0.12 mg/kg): 35 ± 4%
- SSAO Activity (%) Liver 24 hour ([1]; 0.6 mg/kg): 16.2 ± 2.9%
- SSAO Activity (%) Plasma 2 hour ([1]; 0.6 mg/kg): 4.3 ± 0.8%
- SSAO Activity (%) Plasma 24 hour ([1]; 0.6 mg/kg): 16.3 ± 2.6%
- SSAO Activity (%) Liver 24 hour ([1]; 3 mg/kg): 7.1 ± 1.7%
- SSAO Activity (%) Plasma 2 hour ([1]; 3 mg/kg): 3.6 ± 1.0%
- SSAO Activity (%) Plasma 24 hour ([1]; 3 mg/kg): 8.8 ± 1.3%
- SSAO Activity (%) Liver 24 hour ([1]; 15 mg/kg): 9.6 ± 2.6%
- SSAO Activity (%) Plasma 2 hour ([1]; 15 mg/kg): −0.6 ± 0.3%
- SSAO Activity (%) Plasma 24 hour ([1]; 15 mg/kg): 6.6 ± 1.8%
- SSAO activity in rat plasma and liver ([1]; doses 0.005-15 mg/kg): dose-dependently inhibits

Compound: COC1CCN(c2ncc(OC/C(=C/F)CN)cn2)CC1 [Example 3, (E)-3-Fluoro-2-[[2-(4-methoxy-1-piperidyl)pyrimidin-5-yl]oxymethyl]prop-2-en-1-amine, Dihydrochloride]
- IC50 [2]: 12 ± 1 nM

Compound: CO[C@H]1CCN(c2ncc(OC/C(=C/F)CN)cn2)C1 [Example 5, (E)-3-Fluoro-2-[[2-[(3S)-3-methoxypyrrolidin-1-yl]pyrimidin-5-yl]oxymethyl]prop-2-en-1-amine]
- IC50 [2]: 32 ± 7 nM

Compound: Cl.Cl.NC/C(=C\F)COc1cnc(N2CC[C@H](O)C2)nc1 [Example 6, (3 S)-1-[5-[(E)-2-(Aminomethyl)-3-fluoro-allyloxy]pyrimidin-2-yl]pyrrolidin-3-ol; Dihydrochloride]
- concentration at 2 h ([3]; mouse, 2 mg/kg once daily, 76 days, 2 hours after last dose, mean ± SEM): 163 ± 21 ng/mL
- concentration at 2 h ([3]; mouse, 6 mg/kg once daily, 76 days, 2 hours after last dose, mean ± SEM): 560 ± 29 ng/mL
- concentration at 2 h ([3]; mouse, 20 mg/kg once daily, 76 days, 2 hours after last dose, mean ± SEM): 2120 ± 219 ng/mL
- Plasma Compound Level ([3]; mouse, 0.6 mg/kg once daily, 76 days, 2 hours after last dose, mean ± SEM): 66. ± 5 ng/ml
- plasma compound levels ([3]; treated mice, all doses): dose-dependent increase
- IC50 [2]: 52 ± 5 nM
- hepatic inflammation ([4]; 20 mg/kg): significant decrease
- macrovesicular vaculation ([4]; 20 mg/kg): significant decrease
- perisinusoidal fibrosis ([4]; 20 mg/kg): significant decrease
- triglyceride levels in blood ([4]; 6 and 20 mg/kg): decreased
- ALT ([4]; all groups of treated mice): significant decrease
- ALT [4, 5]: 530 ± 45 IU/L
- Plasma TG [4, 5]: 55 ± 6 mg/dL
- Hepatic inflammation Score (0-3) Left [4, 6]: 2.6 ± 0.1
- Macrovesicular vaculation Score (0-3) Left [4, 6]: 2.5 ± 0.1
- Perisinusoidal fibrosis Score (0-3) Left [4, 6]: 2.4 ± 0.2
- Hepatic inflammation Score (0-3) Right [4, 6]: 2.5 ± 0.1
- Macrovesicular vaculation Score (0-3) Right [4, 6]: 2.6 ± 0.1
- Perisinusoidal fibrosis Score (0-3) Right [4, 6]: 1.9 ± 0.2
- ALT [4, 7]: 483 ± 44 IU/L
- Plasma TG [4, 7]: 70 ± 11 mg/dL
- Hepatic inflammation Score (0-3) Left [4, 8]: 2.5 ± 0.1
- Macrovesicular vaculation Score (0-3) Left [4, 8]: 2.5 ± 0.1
- Perisinusoidal fibrosis Score (0-3) Left [4, 8]: 2.5 ± 0.2
- Hepatic inflammation Score (0-3) Right [4, 8]: 2.6 ± 0.1
- Macrovesicular vaculation Score (0-3) Right [4, 8]: 2.7 ± 0.1
- Perisinusoidal fibrosis Score (0-3) Right [4, 8]: 1.8 ± 0.2
- ALT [4, 9]: 495 ± 25 IU/L
- Plasma TG [4, 9]: 46 ± 4 mg/dL
- Hepatic inflammation Score (0-3) Left [4, 10]: 2.5 ± 0.2
- Macrovesicular vaculation Score (0-3) Left [4, 10]: 2.9 ± 0.1
- Perisinusoidal fibrosis Score (0-3) Left [4, 10]: 2.6 ± 0.2
- Hepatic inflammation Score (0-3) Right [4, 10]: 2.6 ± 0.2
- Macrovesicular vaculation Score (0-3) Right [4, 10]: 2.7 ± 0.1
- Perisinusoidal fibrosis Score (0-3) Right [4, 10]: 2.1 ± 0.3
- ALT [4, 11]: 466 ± 37 IU/L
- Plasma TG [4, 11]: 45 ± 5 mg/dL
- Hepatic inflammation Score (0-3) Left [4, 12]: 2.1 ± 0.1
- Macrovesicular vaculation Score (0-3) Left [4, 12]: 2.4 ± 0.2
- Perisinusoidal fibrosis Score (0-3) Left [4, 12]: 1.9 ± 0.2
- Hepatic inflammation Score (0-3) Right [4, 12]: 2.1 ± 0.1
- Macrovesicular vaculation Score (0-3) Right [4, 12]: 2.3 ± 0.1
- Perisinusoidal fibrosis Score (0-3) Right [4, 12]: 1.5 ± 0.2
